This is an account of results in the supplement of paper PMC10627819.

Common to all, as to experiment: Bliss interaction score (quartile over a dose matrix) (fitness difference); higher = more antagonism (negative = synergy)
In one test the test system is S. aureus Newman. In a few lines: (§1)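 The Bliss score is observed minus expected fitness under the product model, reported as quartiles over technical, biological and donor/recipient replicates. Fitness is the OD595 at entry into stationary phase divided by the plate's robust no-drug mean and capped at 1. Single-drug fitness was inferred from combination data.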
Another test concerns B. subtilis 168. In a few lines: as §1
In a further test the test system is S. pneumoniae D39V. In a few lines:
as §1

The subject of the next test is S. aureus DSM 20231. In a few lines:
as §1
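Note: first quartile when negative (synergy) and third quartile when positive (antagonism).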

With `CC(=O)OC[C@H]1O[C@@H]([S-])[C@H](OC(C)=O)[C@@H](OC(C)=O)[C@@H]1OC(C)=O.CCP(CC)CC.[Au+]` [Auranofin] + O=C(O[C@@H]1Cc2c(O)cc(O)cc2O[C@@H]1c1cc(O)c(O)c(O)c1)c1cc(O)c(O)c(O)c1 [EGCG], the Bliss interaction score in the test with S. aureus Newman is -0.0511; in the test with B. subtilis 168, 0.0518; in the test on S. pneumoniae D39V, 0.08; in the test with S. aureus DSM 20231 it was -0.0255.

As for `CC(=O)OC[C@H]1O[C@@H]([S-])[C@H](OC(C)=O)[C@@H](OC(C)=O)[C@@H]1OC(C)=O.CCP(CC)CC.[Au+]` [Auranofin] + Oc1cc(Cl)ccc1Oc1ccc(Cl)cc1Cl [Triclosan], the Bliss interaction score in the test on S. aureus Newman is -0.0211; in the test with B. subtilis 168, -0.0277; with S. pneumoniae D39V it was 0.106; with S. aureus DSM 20231, -0.0223.

On to `O=C(N[C@H](CO)[C@H](O)c1ccc([N+](=O)[O-])cc1)C(Cl)Cl` [Chloramphenicol] + CC1(C)S[C@@H]2[C@H](NC(=O)Cc3ccccc3)C(=O)N2[C@H]1C(=O)O [PenicillinG], for which the Bliss interaction score with S. aureus Newman is -0.0428; in the test on B. subtilis 168, 0.0719; with S. pneumoniae D39V, -0.0461; in the test with S. aureus DSM 20231, 0.0631.

For `O=C(N[C@H](CO)[C@H](O)c1ccc([N+](=O)[O-])cc1)C(Cl)Cl` [Chloramphenicol] + CC(=O)O[C@H]1C[C@@]2(C)[C@@H](C[C@@H](O)[C@H]3[C@@]4(C)CC[C@@H](O)[C@@H](C)[C@@H]4CC[C@@]32C)/C1=C(\CCC=C(C)C)C(=O)O [Fusidic acid], the Bliss interaction score in the test with S. aureus Newman is -0.0559; with B. subtilis 168 it was 0.074; in the test with S. pneumoniae D39V, -0.103; with S. aureus DSM 20231, 0.0319.

Turning to `O=C(N[C@H](CO)[C@H](O)c1ccc([N+](=O)[O-])cc1)C(Cl)Cl` [Chloramphenicol] + CCC(C)C1C(=O)NC(=C)C(=O)NC(C(=O)NC(CSCC(C(=O)N1)NC(=O)/C(=C/C)/NC(=O)C(C(C)CC)N)C(=O)NC2C(SCC(NC(=O)CNC(=O)C3CCCN3C2=O)C(=O)NC(CCCCN)C(=O)NC4C(SCC(NC(=O)CNC(=O)C(NC(=O)C(NC(=O)C(NC(=O)CNC4=O)C)CC(C)C)CCSC)C(=O)NC(CC(=O)N)C(=O)NC(CCSC)C(=O)NC(CCCCN)C(=O)NC5C(SCC6C(=O)NC(C(=O)NC(CSC(C(C(=O)N6)NC(=O)C(NC5=O)C)C)C(=O)NC(CO)C(=O)NC(C(C)CC)C(=O)NC(CC7=CN=CN7)C(=O)NC(C(C)C)C(=O)NC(=C)C(=O)NC(CCCCN)C(=O)O)CC8=CN=CN8)C)C)C)CC(C)C [Nisin], the Bliss interaction score was 0.0543 in the test with S. aureus Newman (main component drawn), 0.0397 in the test with B. subtilis 168 (main component drawn), -0.102 in the test on S. pneumoniae D39V (main component drawn) and -0.0704 in the test with S. aureus DSM 20231 (main component drawn).

Take `O=C(N[C@H](CO)[C@H](O)c1ccc([N+](=O)[O-])cc1)C(Cl)Cl` [Chloramphenicol] + CC[C@H]1OC(=O)[C@H](C)C(=O)[C@H](C)[C@@H](O[C@@H]2O[C@H](C)C[C@H](N(C)C)[C@H]2O)[C@](C)(OC)C[C@@H](C)C(=O)[C@H](C)[C@H]2N(CCCCn3cnc(-c4cccnc4)c3)C(=O)O[C@]12C [Telithromycin]: the Bliss interaction score in the test with S. aureus Newman was -0.0946; in the test on B. subtilis 168 it was -0.0575; in the test with S. pneumoniae D39V it was -0.0437; with S. aureus DSM 20231 it was -0.104.

For the compound `O=C(N[C@H](CO)[C@H](O)c1ccc([N+](=O)[O-])cc1)C(Cl)Cl` [Chloramphenicol] + CC[C@H]1OC(=O)[C@H](C)[C@@H](O[C@H]2C[C@@](C)(OC)[C@@H](O)[C@H](C)O2)[C@H](C)[C@@H](O[C@@H]2O[C@H](C)C[C@H](N(C)C)[C@H]2O)[C@](C)(O)C[C@@H](C)C(=O)[C@H](C)[C@@H](O)[C@]1(C)O [Erythromycin], the Bliss interaction score is -0.103 with S. aureus Newman, 0.0488 in the test on B. subtilis 168, 0.0269 in the test on S. pneumoniae D39V and 0.0318 with S. aureus DSM 20231.

`O=C(N[C@H](CO)[C@H](O)c1ccc([N+](=O)[O-])cc1)C(Cl)Cl` [Chloramphenicol] + CC[C@H]1OC(=O)[C@H](C)[C@@H](O[C@H]2C[C@@](C)(OC)[C@@H](O)[C@H](C)O2)[C@H](C)[C@@H](O[C@@H]2O[C@H](C)C[C@H](N(C)C)[C@H]2O)[C@](C)(OC)C[C@@H](C)C(=O)[C@H](C)[C@@H](O)[C@]1(C)O [Clarithromycin]: the Bliss interaction score is -0.129 with S. aureus Newman, -0.0459 in the test on B. subtilis 168, 0.0359 with S. pneumoniae D39V and -0.158 in the test with S. aureus DSM 20231.

Turning to `O=C(N[C@H](CO)[C@H](O)c1ccc([N+](=O)[O-])cc1)C(Cl)Cl` [Chloramphenicol] + CN(C)[C@@H]1C(O)=C(C(N)=O)C(=O)[C@@]2(O)C(O)=C3C(=O)c4c(O)ccc(Cl)c4[C@@](C)(O)[C@H]3C[C@@H]12 [Clortetracycline], the Bliss interaction score with S. aureus Newman was -0.0412; in the test on B. subtilis 168, -0.117; in the test on S. pneumoniae D39V it was -0.0404; in the test with S. aureus DSM 20231, 0.0518.

`O=C(N[C@H](CO)[C@H](O)c1ccc([N+](=O)[O-])cc1)C(Cl)Cl` [Chloramphenicol] + CN[C@H](CC(C)C)C(=O)N[C@H]1C(=O)N[C@@H](CC(N)=O)C(=O)N[C@H]2C(=O)N[C@H]3C(=O)N[C@H](C(=O)N[C@H](C(=O)O)c4cc(O)cc(O)c4-c4cc3ccc4O)[C@H](O[C@H]3C[C@](C)(N)[C@@H](O)[C@H](C)O3)c3ccc(c(Cl)c3)Oc3cc2cc(c3O[C@@H]2O[C@H](CO)[C@@H](O)[C@H](O)[C@H]2O[C@H]2C[C@](C)(NCc3ccc(-c4ccc(Cl)cc4)cc3)[C@@H](O)[C@H](C)O2)Oc2ccc(cc2Cl)[C@H]1O [Oritavancin]: the Bliss interaction score is -0.0346 in the test on S. aureus Newman, 0.0647 with B. subtilis 168, 0.0499 in the test on S. pneumoniae D39V and 0.0571 with S. aureus DSM 20231.

As for `O=C(N[C@H](CO)[C@H](O)c1ccc([N+](=O)[O-])cc1)C(Cl)Cl` [Chloramphenicol] + CO[C@@H]1[C@@H](OC(N)=O)[C@@H](O)[C@H](Oc2ccc3c(O)c(NC(=O)c4ccc(O)c(CC=C(C)C)c4)c(=O)oc3c2C)OC1(C)C [Novobiocin], the Bliss interaction score in the test with S. aureus Newman is 0.0758; in the test with B. subtilis 168 it was 0.0928; in the test on S. pneumoniae D39V, -0.111; in the test with S. aureus DSM 20231, 0.0712.

`O=C(N[C@H](CO)[C@H](O)c1ccc([N+](=O)[O-])cc1)C(Cl)Cl` [Chloramphenicol] + CO[C@@]12[C@H](COC(N)=O)C3=C(C(=O)C(C)=C(N)C3=O)N1C[C@@H]1N[C@@H]12 [MitomycinC]: the Bliss interaction score is 0.102 with S. aureus Newman, 0.114 in the test with B. subtilis 168, -0.0831 in the test on S. pneumoniae D39V and -0.0503 in the test with S. aureus DSM 20231.
